Common to all, as to type: functional
For test [1], the species on record is Rattus norvegicus. Nature of the test: Effective dose for antinociceptive activity in rats.
Test [2] concerns Rattus norvegicus. Briefly: Effective dose for antinociceptive activity in rat tail-withdrawal test i.v.
Another test deals with Mus musculus. Nature of the test: Effective dose for antinociceptive activity in mice hot plate test s.c. The note with it: sc.

SMILES strings stand for the structures.

Results on 3 compounds are retold here after ChEMBL document CHEMBL1122879, “Racemic and optically active 1,3,3-trimethyl-4-phenyl-4-(propionyloxy)piperidine” (1985).

The term ED50 denotes the dose at which the effect has come halfway, by size or by number of responders.

For `CCC(=O)O[C@@]1(c2ccccc2)CCN(C)CC1(C)C`, the ED50 in the test filed under Rattus norvegicus [1] was 0.5 mg/kg.

Take `CCC(=O)OC1(c2ccccc2)CCN(C)CC1(C)C` (racemic): the figures for the ED50 in the test on Rattus norvegicus [2] and in the test with Mus musculus were 0.63 mg/kg and 0.61 mg/kg, respectively.

Consider `CCOC(=O)C1(c2ccccc2)CCN(C)CC1` [MEPERIDINE], for which the ED50 in the test with Rattus norvegicus [2] is 6.15 mg/kg; in the test on Mus musculus, 4.1 mg/kg.
